Experiments:
Thromboxane A2 receptor = target: T1, Thromboxane A2 receptor (Rattus norvegicus, UniProt P34978); assay: In vitro Thromboxane A2 (TXA2) receptor antagonism was tested by its ability to inhibit the contraction of rat aorta induced by the stable thromboxane agonist U-46,619; format: functional, tissue-based; conditions: read-out: pA2 (converted)
T1 sequence (P34978 whole entry): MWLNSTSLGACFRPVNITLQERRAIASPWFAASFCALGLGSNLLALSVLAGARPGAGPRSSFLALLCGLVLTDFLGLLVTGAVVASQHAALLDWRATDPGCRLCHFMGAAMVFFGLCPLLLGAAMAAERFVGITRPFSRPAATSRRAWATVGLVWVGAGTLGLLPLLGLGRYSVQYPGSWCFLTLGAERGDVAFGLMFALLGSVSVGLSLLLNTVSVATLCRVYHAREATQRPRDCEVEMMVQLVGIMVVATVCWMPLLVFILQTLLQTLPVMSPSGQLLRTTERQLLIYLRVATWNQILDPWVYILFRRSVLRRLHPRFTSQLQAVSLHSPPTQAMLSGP

[1] = test system: Thromboxane A2 receptor (Canis lupus familiaris); assay: Tested for the peroral dose required to maintain complete thromboxane receptor antagonism for > 12 hours.
[2] = test system: Thromboxane A2 receptor (Canis lupus familiaris); assay: Tested for peroral dose required to cause complete blockade of the response to the thromboxane receptor agonist U-46,619 (1 uM) for 48 hours
Thromboxane-A synthase = target: T2, Thromboxane-A synthase (Homo sapiens, UniProt P24557); assay: Inhibitory activity against Thromboxane A2 synthase from human platelet microsomes.
T2 sequence (P24557 whole entry): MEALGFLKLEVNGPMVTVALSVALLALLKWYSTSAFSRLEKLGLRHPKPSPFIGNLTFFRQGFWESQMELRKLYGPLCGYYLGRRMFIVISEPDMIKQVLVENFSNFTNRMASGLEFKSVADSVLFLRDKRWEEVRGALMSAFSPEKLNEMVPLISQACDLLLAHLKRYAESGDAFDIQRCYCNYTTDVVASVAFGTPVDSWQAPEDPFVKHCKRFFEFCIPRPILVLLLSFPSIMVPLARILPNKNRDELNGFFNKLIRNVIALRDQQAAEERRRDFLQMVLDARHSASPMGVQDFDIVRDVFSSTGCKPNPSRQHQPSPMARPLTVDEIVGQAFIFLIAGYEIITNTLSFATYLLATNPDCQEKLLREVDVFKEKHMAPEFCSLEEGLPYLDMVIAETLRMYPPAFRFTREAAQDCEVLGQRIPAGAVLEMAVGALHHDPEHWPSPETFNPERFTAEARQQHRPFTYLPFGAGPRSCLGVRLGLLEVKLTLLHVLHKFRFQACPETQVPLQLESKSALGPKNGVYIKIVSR

Kb (Thromboxane A2 receptor) | SMILES | further results
0.0398 nM | N#Cc1ccc(C(=O)c2cc(CCNS(=O)(=O)c3ccc(Cl)cc3)cc(CCC(=O)O)c2)cc1 | –
0.316 nM | CS(=O)(=O)c1ccc(C(=O)c2cc(CCNS(=O)(=O)c3ccc(Cl)cc3)cc(CCC(=O)O)c2)cc1 | –
0.0631 nM | COc1ccccc1Cc1cc(CCNS(=O)(=O)c2ccc(Cl)cc2)cc(CCC(=O)O)c1 | –
0.00398 nM | CC(c1ccc(F)cc1)c1cc(CCNS(=O)(=O)c2ccc(Cl)cc2)cc(CCC(=O)O)c1 (stereo not drawn) | –
0.0251 nM | COc1ccc(C(=O)c2cc(CCNS(=O)(=O)c3ccc(Cl)cc3)cc(CCC(=O)O)c2)cc1 | –
0.1 nM | O=C(O)CCc1cc(CCNS(=O)(=O)c2ccc(Cl)cc2)cc(C(=O)c2ccc(F)cc2)c1 | –
0.00398 nM | COc1ccc(Cc2cc(CCNS(=O)(=O)c3ccc(Cl)cc3)cc(CCC(=O)O)c2)cc1 | –

The next lines start with the molecule.

SMILES | Kb (Thromboxane A2 receptor) | further results
O=C(O)CCc1cc(CCNS(=O)(=O)c2ccc(Cl)cc2)cc(Cc2ccc(F)cc2)c1 | 0.0251 nM | Activity [1]: 0.1 mg/kg; Activity [2]: 1 mg/kg
O=C(O)CCc1cc(CCNS(=O)(=O)c2ccc(Cl)cc2)cc(C(O)c2ccc(F)cc2)c1 (stereo not drawn) | 0.2 nM | –
O=C(O)CCc1cccc(CCNS(=O)(=O)c2ccc(Cl)cc2)c1 | 2 nM | –
O=C(O)CCc1cc(CCNS(=O)(=O)c2ccc(Cl)cc2)cc(Cc2ccncc2)c1 | 0.00251 nM | IC50 (Thromboxane-A synthase): 47 nM
O=C(O)CCc1cc(CCNS(=O)(=O)c2ccc(Cl)cc2)cc(Cc2ccccc2)c1 | 0.0158 nM | –
CS(=O)(=O)c1ccc(Cc2cc(CCNS(=O)(=O)c3ccc(Cl)cc3)cc(CCC(=O)O)c2)cc1 | 0.0631 nM | –
O=C(O)CCc1cc(CCNS(=O)(=O)c2ccc(Cl)cc2)cc(Cc2cccc(F)c2)c1 | 0.0794 nM | –
O=C(O)CCc1cc(CCNS(=O)(=O)c2ccc(Cl)cc2)cc(Cc2cccnc2)c1 | 0.398 nM | –

Reference: ChEMBL document CHEMBL1130914, “Thromboxane modulating agents. 4. Design and synthesis of 3-(2-[[(4-chlorophenyl)sulfonyl]-amino]ethyl)benzenepropanoic acid derivatives as potent thromboxane receptor antagonists” (Bioorg Med Chem Lett, 1998)
